According to patent publication US20070078207A1, “Stabilizer cyanoacrylate formulations” (priority 2005, published 2007):

System: L5178Y TK^±
Assay: Mouse lymphoma screening study, mutation assay without activation (protocol 431ICH1 edition 3)
Format: cell-based
Description: In order to determine mutagenic activity for cyanoacrylate compositions containing hydroquinone, a mouse lymphoma screening study was conducted according to methods known in the art. The assay protocol used was 431ICH1 edition 3 (L5178Y TK^±) and was conducted by Covance, Inc. The amount of radical stabilizer in each of the cyanoacrylate compositions was varied. The selective agent was 3.0 μg/ml 5-trifluorothymidine (TFT).

Cumulative RSG (without activation, Relative to Vehicle Control (%)): 2.0%
Daily Cell Counts Day 2 (without activation, footnote g = not subcultured): 0.9^g Cell/ML, 10E5 units
Daily Cell Counts Day 1 (without activation, selective agent 3.0 μg/ml TFT): 0.5 Cell/ML, 10E5 units
SMILES: Oc1ccc(O)cc1 [HQ in saline, hydroquinone]
mutagenic activity (result in words, mutagenic activity defined as 124.1×10E-6 units): does not exhibit mutagenicity
